Assay results: patent US6541503B2, “Substituted oxindole derivatives as protein tyrosine kinase and as protein serine/threonine kinase inhibitors” (SmithKline Beecham Corporation, priority 1997, dated 2003)

Tests used:
[1] = tested on: HDF normal diploid fibroblast cells; assay: MTT assay, HDF; assay type: cell-based, human; conditions: Homo sapiens, Fibroblast, 72 h, read-out: MTT HDF IC50
Procedure: Compounds are tested for their ability to inhibit cell proliferation and cell viability. The metabolic conversion of 3-(4,5-dimethylthiazol-2-yl)-2,5-diphenyltetrazolium bromide (MTT, Sigma #M2128) to a reduced form is a commonly used measure of cellular viability. Following is the procedure:
Cells are maintained in 75 cm^2 tissue culture flasks until ready for use. The cells are grown and plated for the assay in Dulbecco's modified Eagle's media (DMEM) containing 10% fetal bovine serum. For example, the following cell lines can be used: a) human foreskin fibroblasts (HFF); b) HT29 (human colon carcinoma cell line); c)MDA-MB-468 (human breast carcinoma cell line); d) RKO (human colon adenocarcinoma cell line); e) SW620 (human colon carcinoma cell line); f) A549 (human lung carcinoma cell line); and g) MIA PACA (human pancreatic carcinoma cell line). Cells are maintained at 37° C. in 10% CO2, 90% humidified air. Cells are plated in 96-well tissue culture plates at the densities listed below. […]
Cells are returned to incubator and allowed to proliferate in the presence of compound for 72 h before addition of MTT. […] Quantitation of metabolic reduction of MTT in each plate is performed by reading optical density at 570 nm wavelength on a Molecular Devices UVmax microplate reader. Growth inhibition curves and 50% inhibitory concentrations are determined using Microsoft Excel. […]

[2] = tested on: HDF normal diploid fibroblast cells; assay: FACS assay (cell death by flow cytometry), HDF; assay type: cell-based, human; conditions: Homo sapiens, Fibroblast, 72 h, read-out: FACS HDF IC50
Procedure: These assays allow determination of both cell death and changes in cell cycle profile in cells following treatment of the compound. The assay is performend as follows:
1. Cells are incubated in DMEM to which 10% FCS has been added in a humidified incubator at 37° C. and 5% by volume of CO2 in air. The cells are innoculated in 6-well plates at a density of 0.5-5×10^5 cells per well.
2. The test compound is added in serial dilutions 24-36 h after plating in 0.5% DMSO. The plates are then incubated a further 72 h in the presence of the compound. During this time, cells in control cultures undergo at least three cell divisions.
3. After incubation, the media is collected and cells are harvested by trypsinization. The cells and media are pooled and pelleted by centrifugation.
4. The cell pellet is fixed in a final volume of 3 mL of 50% ice cold MeOH and incubated for a minimum of 30 min at −20° C.
5. The cells are pelleted by centrifugation and resuspended in 0.5 mL PBS containing 1%FCS, […] Propidium Iodide (PI) and 5 mg/mL RNase A and incubated 30 min at 37° C. in the dark.
6. The samples are analysed by flow cytometry using the relative incorporation of PI as a measure of DNA content of each cell. The % Dead cells is recorded as % of events with less than 2N DNA.
HDF are normal diploid fibroblast cells. RKO are colon adenocarcinoma cells and MES/SA are […].

Question: With `O=C1Nc2ccc3ncsc3c2C1=CNc1ccc(S(=O)(=O)Nc2ccccn2)cc1` [Example 72, 4-[(7-Oxo-6,7-dihydro-1-thia-3,6-diaza-as-indacen-8-ylidenemethyl)-amino]-N-pyridin-2-yl-benzenesulfonamide] as the molecule, how does the IC50 [1] read?
Answer: > 5 µM

Question: And the IC50 [2]?
Answer: > 5 µM
